Reference: patent US20120214847A1, “2-[1-PHENYL-5-HYDROXY-4a-SUBSTITUTED-HEXAHYDROCYCLOPENTA[F]INDAZOL-5-YL]ETHYL PHENYL DERIVATIVES AS GLUCOCORTICOID RECEPTOR LIGANDS” (Merck Sharp & Dohme Corp., priority 2009, published 2012)

Target: T1, human GR (Homo sapiens, UniProt P04150)
T1 construct: naturally expresses the human GR; endogenous in cells
T1 sequence (P04150 1-777): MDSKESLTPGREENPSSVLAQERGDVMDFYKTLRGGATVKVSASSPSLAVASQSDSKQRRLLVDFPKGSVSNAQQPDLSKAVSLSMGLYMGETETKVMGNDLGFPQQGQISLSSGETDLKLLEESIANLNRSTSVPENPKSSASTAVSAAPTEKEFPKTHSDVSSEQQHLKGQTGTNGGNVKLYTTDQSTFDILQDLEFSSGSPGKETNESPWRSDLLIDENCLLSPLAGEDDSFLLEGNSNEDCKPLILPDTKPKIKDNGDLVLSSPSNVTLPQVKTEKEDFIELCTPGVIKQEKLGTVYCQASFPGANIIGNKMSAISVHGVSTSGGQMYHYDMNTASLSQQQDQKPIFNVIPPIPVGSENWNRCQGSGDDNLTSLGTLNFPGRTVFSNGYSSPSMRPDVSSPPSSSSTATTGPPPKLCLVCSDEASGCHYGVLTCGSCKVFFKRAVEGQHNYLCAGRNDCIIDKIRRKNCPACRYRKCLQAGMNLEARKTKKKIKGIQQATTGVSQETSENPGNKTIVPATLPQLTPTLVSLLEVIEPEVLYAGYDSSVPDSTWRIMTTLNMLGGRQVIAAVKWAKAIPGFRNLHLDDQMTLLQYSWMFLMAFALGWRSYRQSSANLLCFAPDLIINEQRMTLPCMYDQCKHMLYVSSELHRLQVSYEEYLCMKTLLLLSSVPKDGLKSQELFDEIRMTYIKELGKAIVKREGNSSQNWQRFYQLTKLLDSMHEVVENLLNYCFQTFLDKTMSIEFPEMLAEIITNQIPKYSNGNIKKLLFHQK
Assay: Trans-activation modulation of glucocorticoid receptor (GRAMMER), MMTV-LUC reporter in A549 cells
Assay type: cell-based
Conditions: for Emax: A549, A549 cells, Emax relative to the activity obtained with 300 nM dexamethasone, read-out: Transactivation A549 Cells Grammer Emax (%); for EC50: A549 cells, IP = inflection point, read-out: Transactivation A549 Cells Grammer IP

Emax | EC50 | SMILES
43% | 35 nM | CC[C@]12Cc3cnn(-c4ccc(F)cc4)c3C=C1CC[C@@]2(O)CCc1ncccc1S(=O)(=O)C(C)C [Example 62, (4aS,5R)-4a-Ethyl-1-(4-fluorophenyl)-5-{2-[3-(propan-2-ylsulfonyl)pyridin-2-yl]ethyl}-1,4,4a,5,6,7-hexahydrocyclopenta[f]indazol-5-ol]
39% | 38 nM | CC[C@]12Cc3cnn(-c4ccc(F)cc4)c3C=C1CC[C@@]2(O)CCc1cccc(F)c1CC(N)=O [Example 60, 2-(2-{2-[(4aS,5R)-4a-Ethyl-1-(4-fluorophenyl)-5-hydroxy-1,4,4a,5,6,7-hexahydrocyclopenta[f]indazol-5-yl]ethyl}-6-fluorophenyl)acetamide]
38% | 7 nM | NC(=O)c1c(C(F)(F)F)ccnc1CC[C@]1(O)CCC2=Cc3c(cnn3-c3ccc(F)cc3)C[C@@]21C1CC1 [Example 55, 2-{2-[(4aR,5R)-4a-Cyclopropyl-1-(4-fluorophenyl)-5-hydroxy-1,4,4a,5,6,7-hexahydrocyclopenta[f]indaozol-5-yl]ethyl}-4-(trifluoromethyl)pyridine-3-carboxamide]
33% | 170 nM | CC[C@]12Cc3cnn(-c4ccc(F)cc4)c3C=C1CC[C@@]2(O)CC(O)c1ccc(F)cn1 (single isomer, unassigned) [Example 69a]
23% | 35 nM | COc1ccnc(CC[C@]2(O)CCC3=Cc4c(cnn4-c4ccc(F)cc4)C[C@@]32C2CC2)c1C(N)=O [Example 54, 2-{2-[(4aR,5R)-4a-Cyclopropyl-1-(4-fluorophenyl)-5-hydroxy-1,4,4a,5,6,7-hexahydrocyclopenta[f]indazol-5-yl]ethyl}-4-methoxypyridine-3-carboxamide]

Continued, molecule first:

SMILES | Emax | EC50
NC(=O)c1cccnc1CC[C@]1(O)CCC2=Cc3c(cnn3-c3ccc(F)cc3)C[C@@]21C1CC1 [Example 1, 2-{2-[(4aR,5R)-4a-Cyclopropyl-1-(4-fluorophenyl)-5-hydroxy-1,4,4a,5,6,7-hexahydrocyclopenta[f]indazol-5-yl]ethyl}pyridine-3-carboxamide] | 27% | 61 nM
CC[C@]12Cc3cnn(-c4ccccc4)c3C=C1CC[C@@]2(O)CCc1cccc(F)c1C#N [Example 15, 2-{2-[(4aS,5R)-4a-Ethyl-5-hydroxy-1-phenyl-1,4,4a,5,6,7-hexahydrocyclopenta[f]indazol-5-yl]ethyl}-6-fluorobenzonitrile] | 29% | 62 nM
CC[C@]12Cc3cnn(-c4cccnc4)c3C=C1CC[C@@]2(O)CCc1ccc(F)cc1C#N [Example 9, 2-{2-[(4aS,5R)-4a-Ethyl-5-hydroxy-1-(pyridin-3-yl)-1,4,4a,5,6,7-hexahydrocyclopenta[f]indazol-5-yl]ethyl}-5-fluorobenzonitrile] | 15% | 76 nM
O=C(NC1(CO)CC1)c1ccccc1CC[C@]1(O)CCC2=Cc3c(cnn3-c3ccc(F)cc3)C[C@@]21C1CC1 [Example 46, 2-{2-[(4aR,5R)-4a-Cyclopropyl-1-(4-fluorophenyl)-5-hydroxy-1,4,4a,5,6,7-hexahydrocyclopenta[f]indazol-5-yl]ethyl}-N-[1-(hydroxymethyl)cyclopropyl]benzamide] | 34% | 20 nM
CC[C@]12Cc3cnn(-c4ccc(F)cc4)c3C=C1CC[C@@]2(O)CCc1ccccc1S(=O)(=O)C(C)C [Example 40, (4aS,5R)-4a-Ethyl-1-(4-fluorophenyl)-5-{2-[2-(propan-2-ylsulfonyl)phenyl]ethyl}-1,4,4a,5,6,7-hexahydrocyclopenta[f]indazol-5-ol] | 36% | 101 nM
